Source: paper PMC3630091, “A Mechanistic Paradigm for Broad-Spectrum Antivirals that Target Virus-Cell Fusion” (PLoS Pathogens, 2013)
Where two headings read alike, the source gives them in different places.

Experiments:
HIV = experiment: microbe, parasite or virus in culture; type: cell-based; conditions: Human immunodeficiency virus 1, 10 min
NDV = experiment: microbe, parasite or virus in culture; type: cell-based, Newcastle disease virus; conditions: avian paramyxovirus 1, 10 min
HSV = experiment: microbe, parasite or virus in culture; type: cell-based, Herpes simplex virus-1; conditions: Human alphaherpesvirus 1, 10 min
[1] = Absorbance spectra / UV-visible spectra integration; type: physicochemical; conditions: for Abs Max (λmax): 100 µM in DMSO; for AUC (400-750 nm): integrated absorption divided by concentration, normalized relative to LJ001 (LJ001 = 100)
[2] = Singlet oxygen quantum yield measurements; type: physicochemical; conditions: for 1O2 QY 355 nm: in CD2Cl2, excitation 355 nm; for 1O2 QY 355 nm / 1O2 QY 532 nm: error is one standard deviation; for 1O2 QY 532 nm: in CD2Cl2, excitation 532 nm
[3] = Singlet oxygen quenching measurements; type: physicochemical; conditions: 355 nm with C60 as external sensitizer; error is one standard deviation
HIV-1JR-CSF = type: cell-based
RVFV ZH501 = type: in vivo, Balb/c mice
enveloped viruses [4] = type: cell-based
in vitro = conditions: human
[5] = Membrane partition into POPC LUV (fluorescence); conditions: for IL / Iw: POPC LUV, fluorescence intensity ratio from curve fitting
[6] = Membrane partition into HIV membrane-like mixture LUV (fluorescence); conditions: for IL / Iw: HIV-like mixture LUV, fluorescence intensity ratio from curve fitting
EBOV = experiment: microbe, parasite or virus in culture; type: cell-based, Ebola Zaire; conditions: Zaire ebolavirus, 10 min, read-out: IC50 EBOV
H1N1 = experiment: microbe, parasite or virus in culture; type: cell-based, Influenza A A/PR/8/34 (H1N1); conditions: read-out: IC50 H1N1
NiV = experiment: microbe, parasite or virus in culture; type: cell-based, Nipah virus Malaysia
HeV = experiment: microbe, parasite or virus in culture; type: cell-based, Hendra virus; conditions: Henipavirus hendraense, 10 min, read-out: IC50 HeV
RVFV = experiment: microbe, parasite or virus in culture; type: cell-based, Rift Valley fever MP-12 (vaccine strain); conditions: Rift Valley fever virus, 10 min, read-out: IC50 RVFV
SFV = experiment: microbe, parasite or virus in culture; type: cell-based; conditions: Semliki Forest virus, BHK, 10 min, read-out: IC50 SFV
CMV = experiment: microbe, parasite or virus in culture; type: cell-based, Cytomegalovirus (strain T3259); conditions: Human betaherpesvirus 5, 10 min, read-out: IC50 CMV, 10 min white light exposure of treated virus
VSV = experiment: microbe, parasite or virus in culture; type: cell-based; conditions: Vesicular stomatitis virus, 10 min, read-out: IC50 VSV
RABV = experiment: microbe, parasite or virus in culture; type: cell-based; conditions: Lyssavirus rabies, 10 min, read-out: IC50 RABV
[7] = Acrylamide quenching in POPC vesicles; type: physicochemical; conditions: >50-fold molar excess of lipid; 3 mM POPC vesicles
[8] = test system: influenza virus A (A/PR/8/34 H1N1); conditions: 5 µM, light 1 h
[9] = Clinical observations after single dose in PK study; type: in vivo, female Balb/c mice
Experimental: Dose administration. […] These mice were replaced and the dose level was reduced to 5 mg/kg. […] Hypoactivity was the only clinical observation noted in some of the mice treated with the 3 test articles at 10 and 100 mg/kg po. […] These animals were replaced and administered with the lower ip dose level of 1.25 mg/kg and underwent blood collections. Mice received single ip doses of 1.25 mg/kg (JL109 and JL118) or 5 mg/kg (JL122) and po doses of 10 mg/kg (JL109, JL118, JL122), 50 mg/kg (JL109, JL118), or 100 mg/kg (JL109, JL118, JL122).

[10] = test system: VSV-ΔG-rluc pseudotyped with NiV envelope glycoproteins, F and G
enveloped viruses [11] = test system: enveloped viruses; parameters: method as in PMID 20133606; conditions: non-cytotoxic concentrations; read-out: IC50, entry of numerous enveloped viruses; cited from earlier work
[12] = reference sensitizer value; cited from earlier work
[13] = read-out: IC50 ± SD (nM) (N=x) HIV
[14] = read-out: IC50 ± SD (nM) (N=x) NDV
[15] = read-out: IC50 ± SD (nM) (N=x) HSV

## CCN1C(=S)O/C(=C\c2ccc(-c3c(OC)cc(OC)cc3OC)o2)C1=S [JL122, (Z)-3-ethyl-5-((5-(2,4,6-trimethoxyphenyl)furan-2-yl)methylene)oxazolidine-2,4-dithione]
HIV; [13]
  IC50: 64 ± 41.5 nM
NDV; [14]
  IC50: 0.9 ± 0.8 nM
HSV; [15]
  IC50: 2.4 ± 1.4 nM
[1]
  Abs Max (λmax): 545 nm
  AUC (400-750 nm): 153
[1]; λ = 400 to 750 nm
  total integrated absorption (AUC), times that of LJ001: 1.53 times
[2]; 355 nm
  QY at 355 nm, times higher than LJ001: about 2 times
[2]
  1O2 QY 355 nm: 0.43 ± 0.04
  1O2 QY 532 nm: 0.23 ± 0.02
[3]
  kT × 10-7: 1.970 ± 0.050 M-1s-1
HIV-1JR-CSF
  antiviral potency at physiological hematocrits: maintained their antiviral potency
RVFV ZH501; 20 pfu RVFV ZH501 IP, IP once a day for 7 days from 1 h post-challenge, JL118 1.25 mg/kg, JL122 and JL103 10 mg/kg
  time-to-death / survival compared to untreated controls: moderate but significant delay in time-to-death
RVFV ZH501; 50 pfu RVFV ZH501 IP, 10 mg/kg IP at 1, 12, 24 and 48 h post-challenge, n = 5
  Median survival: 6 days
Enveloped viruses [4]
  improved in vitro potency compared to LJ001: 10-100 fold
In vitro
  CC50: 10.3 µM
Pharmacokinetics in mice; female, Balb/c, mouse, in vivo
  MRT last: 4.7 to 7 h
  Tmax: 0.25 to 1 h
Pharmacokinetics in mice; female, Balb/c, mouse, in vivo, ip, 5 mg/kg
  AUC(0-t): 569 ng·h/mL
Pharmacokinetics in mice; female, Balb/c, mouse, in vivo, ip, 5 mg/kg, ip 5 mg/kg
  Cmax: 122 ng/mL
Pharmacokinetics in mice; female, Balb/c, mouse, in vivo, ip, 10 mg/kg
  AUC(0-t): 924 ng·h/mL
Pharmacokinetics in mice; female, Balb/c, mouse, in vivo, ip, 10 mg/kg, ip 10 mg/kg
  Cmax: 132 ng/mL
Pharmacokinetics in mice; female, Balb/c, mouse, in vivo, po, 10 mg/kg
  AUC(0-t): 232 ng·h/mL
Pharmacokinetics in mice; female, Balb/c, mouse, in vivo, po, 50 mg/kg, po 50 mg/kg
  Cmax: 122 ng/mL
Pharmacokinetics in mice; female, Balb/c, mouse, in vivo, po, 100 mg/kg
  AUC(0-t): 1270 ng·h/mL
Pharmacokinetics in mice; half-life, AUC, bioavailability, clearance
  improvements in relevant pharmacokinetic (PK) parameters compared to LJ001: > 10 fold
[5]
  Kp at 10 min, 50 µM: 1130
  IL / Iw: 143.8
[6]
  Kp at 10 min, 50 µM: 267
  IL / Iw: 613.7

## C=CCN1C(=O)/C(=C/c2ccc(-c3ccccc3)o2)SC1=S [LJ001, (Z)-3-allyl-5-((5-phenylfuran-2-yl)methylene)-2-thioxothiazolidin-4-one]
HIV; read-out: IC50 HIV
  IC50: 133 nM
HIV; [13]
  IC50: 182 ± 244 nM
NDV; read-out: IC50 NDV
  IC50: 95 nM
NDV; [14]
  IC50: 181 ± 105 nM
EBOV
  IC50: 0.9 µM
H1N1; Influenza A virus, H1N1, 10 min
  IC50: 0.0257 µM
H1N1
  IC50: 0.026 µM
NiV; Henipavirus nipahense, 10 min, read-out: IC50 NiV, 10 min white light exposure of treated virus
  IC50: 0.0475 µM
NiV; read-out: IC50 NiV, 10 min white light exposure of treated virus
  IC50: 0.048 µM
HeV
  IC50: 0.018 µM
RVFV
  IC50: 0.02 µM
SFV
  IC50: 0.537 µM
HSV; read-out: IC50 HSV
  IC50: 20 nM
HSV; [15]
  IC50: 35.3 ± 48.3 nM
CMV
  IC50: 0.147 µM
VSV
  IC50: 0.298 µM
RABV
  IC50: 5.29 µM
[7]
  fraction protected from the water-soluble quencher (acrylamide): over 85%
[1]
  Abs Max (λmax): 455 nm
  AUC (400-750 nm): 100
[2]
  1O2 QY 355 nm: 0.20 ± 0.02
  1O2 QY 532 nm: 0
[3]
  kT × 10-7: 0.189 ± 0.010 M-1s-1
[8]
  increase in the number of oxidized forms of unsaturated phospholipids compared to LJ025-treated samples: up to 300 fold
[9]; single dose 5 mg/kg ip
  clinical observations: appeared normal
[9]; single dose 10 mg/kg ip
  clinical observations: 2 were sacrificed in moribund condition and 1 was found dead
[10]
  t1/2 (inhibition half-life, time-of-addition): 1.12 h
Enveloped viruses [11]
  IC50: ≤ 0.5 µM
In vitro
  CC50: 11.9 µM
Pharmacokinetics in mice; female, Balb/c, mouse, in vivo
  clearance: ~700 mL/min/kg
  half-life: 0.2 h
Pharmacokinetics in mice; ip 5 mg/kg
  time post-dose up to which plasma levels were detectable: ≤ 0.5 h
Pharmacokinetics in mice; iv 10 mg/kg
  time post-dose up to which plasma levels were detectable: up to 1 hr
[5]
  IL / Iw: 2.29
[6]
  Kp at 10 min, 50 µM: 5190
  IL / Iw: 2.41

## C=CCN1C(=O)S/C(=C\c2ccc(-c3ccccc3)o2)C1=O [LJ025, (Z)-3-allyl-5-((5-phenylfuran-2-yl)methylene)thiazolidine-2,4-dione]
[7]
  fraction protected from the water-soluble quencher (acrylamide): over 85%
[1]
  Abs Max (λmax): 405 nm
  AUC (400-750 nm): < 100
[2]
  1O2 QY 355 nm: 0
[3]
  kT × 10-7: 0.191 ± 0.010 M-1s-1
other
  melting point: 149 to 151 °C
In vitro
  CC50: > 50 µM
[5]
  IL / Iw: 2.79
[6]
  IL / Iw: 3.60

## O=C1OC2(c3cc(I)c(O)c(I)c3Oc3c2cc(I)c(O)c3I)c2c(Cl)c(Cl)c(Cl)c(Cl)c21 [RB, Rose Bengal]
[12]
  1O2 QY of reference compound at 532 nm: 0.79

## C1=Cc2nc1c(-c1ccccc1)c1ccc([nH]1)c(-c1ccccc1)c1nc(c(-c3ccccc3)c3ccc([nH]3)c2-c2ccccc2)C=C1 [TPP]
[12]
  1O2 QY of reference compound at 532 nm: 0.62
